Assay results as given in ChEMBL document CHEMBL3044861, “Synthesis and Herbicidal Activity of New 2-(1-Carbamoyl-1, 2, 4-triazol-3-ylsulfonyl) alkanoates” (J Pestic Sci, 2002).

Legend:
Pontederia vaginalis [1] = experiment: Herbicidal activity against Monochoria vaginalis assessed as killing at 50 g/ha pre-emergence application under paddy conditions; format: functional
Echinochloa oryzicola [2] = experiment: Herbicidal activity against Echinochloa oryzicola assessed as killing at 50 g/ha pre-emergence application under paddy conditions; format: functional
[3] = system: Schoenoplectiella juncoides; experiment: Herbicidal activity against Schoenoplectiella juncoides assessed as killing at 50 g/ha pre-emergence application under paddy conditions; format: functional
[4] = Herbicidal activity against broadleaf weed assessed as killing at 50 g/ha pre-emergence application under paddy conditions; format: functional
Oryza sativa [5] = experiment: Toxicity in Oryza sativa (rice) assessed as injury at 50 g/ha pre-emergence application under paddy conditions by crop safety assay; format: organism-based; conditions: in vivo, other
[6] = Octanol-water partition coefficient, log K of the compound; format: physicochemical; conditions: read-out: log K
Echinochloa oryzicola [7] = experiment: Herbicidal activity against Echinochloa oryzicola assessed as killing at 25 g/ha pre-emergence application under paddy conditions; format: functional
Echinochloa oryzicola [8] = experiment: Herbicidal activity against Echinochloa oryzicola assessed as killing pre-emergence application under paddy conditions; format: functional
[9] = system: Schoenoplectiella juncoides; experiment: Herbicidal activity against Schoenoplectiella juncoides assessed as killing at 25 g/ha pre-emergence application under paddy conditions; format: functional
Pontederia vaginalis [10] = experiment: Herbicidal activity against Monochoria vaginalis assessed as killing at 25 g/ha pre-emergence application under paddy conditions; format: functional
[11] = Herbicidal activity against broadleaf weed assessed as killing at 25 g/ha pre-emergence application under paddy conditions; format: functional
Oryza sativa [12] = experiment: Toxicity in Oryza sativa (rice) assessed as injury at 25 g/ha pre-emergence application under paddy conditions by crop safety assay; format: organism-based; conditions: in vivo, other
Chenopodium album = experiment: Herbicidal activity against Chenopodium album assessed as killing at 500 g/ha pre-emergence application upland paddy conditions measured after 14 days; format: functional
Echinochloa crus-galli = experiment: Herbicidal activity against Echinochloa crus-galli (barnyard grass) assessed as killing at 500 g/ha pre-emergence application upland paddy conditions measured after 14 days; format: functional
Zea mays = experiment: Herbicidal activity against Zea mays (maize)assessed as killing at 500 g/ha pre-emergence application upland paddy conditions measured after 14 days; format: functional
Digitaria ciliaris = experiment: Herbicidal activity against Digitaria ciliaris assessed as killing at 500 g/ha pre-emergence application upland paddy conditions measured after 14 days; format: functional

Row | SMILES | Activity (Pontederia vaginalis [1]) [%] | Activity (Echinochloa oryzicola [2]) [%] | Activity [3] [%] | Activity [4] [%] | Activity (Oryza sativa [5]) [%] | logP [6] | Activity (Echinochloa oryzicola [7]) [%] | log(1/ED80) (Echinochloa oryzicola [8]) | Activity [9] [%] | Activity (Pontederia vaginalis [10]) [%] | Activity [11] [%] | Activity (Oryza sativa [12]) [%] | Activity (Chenopodium album) [%] | Activity (Echinochloa crus-galli) [%] | Activity (Zea mays) [%] | Activity (Digitaria ciliaris) [%]
1 | CC(C)CC(C(=O)OC(C)C)S(=O)(=O)c1ncn(C(=O)N(C(C)C)C(C)C)n1 (stereo not given) | 10 | 60 | 30 | 60 | – | – | – | – | – | – | – | – | – | – | – | –
2 | CCN(CC)C(=O)C(CC(C)C)S(=O)(=O)c1ncn(C(=O)N(CC)CC)n1 (stereo not given) | 10 | 10 | 10 | 10 | 20 | – | – | – | – | – | – | – | – | – | – | –
3 | CCCOC(=O)C(CC(C)C)S(=O)(=O)c1ncn(C(=O)N(CC)CC)n1 (stereo not given) | 100 | 100 | 100 | 100 | 10 | 0.9 | 90 | 1.41 | 70 | 60 | 60 | 10 | – | – | – | –
4 | CCN(CC)C(=O)n1cnc(S(=O)(=O)C(CCCC#N)C(=O)OC)n1 (stereo not given) | 10 | 10 | 10 | 10 | 10 | 0.41 | – | 0.05 | – | – | – | – | 90 | 90 | 70 | 90
5 | CCN(CC)C(=O)n1cnc(S(=O)(=O)CCC(C)C)n1 | 10 | 100 | 10 | 50 | 10 | – | – | – | – | – | – | – | – | – | – | –
6 | C=C(C)CC(C(=O)OC)S(=O)(=O)c1ncn(C(=O)N(CC)CC)n1 (stereo not given) | 100 | 90 | 60 | 90 | 10 | 0.63 | – | 0.95 | – | – | – | – | 100 | 100 | 40 | 100
7 | CCN(CC)C(=O)n1cnc(S(=O)(=O)C(C(=O)OC)C2CC2)n1 (stereo not given) | 10 | 10 | 10 | 10 | 10 | 0.47 | – | 0.24 | – | – | – | – | 80 | 90 | 20 | 100
8 | CCCCC(C(=O)OC)S(=O)(=O)c1ncn(C(=O)N(CC)CC)n1 (stereo not given) | 40 | 90 | 10 | 30 | 10 | 0.69 | – | 0.9 | – | – | – | – | 100 | 90 | 50 | 90
9 | CC(C)CC(C(=O)OC(C)C)S(=O)(=O)c1ncn(C(=O)N2CCCC2)n1 (stereo not given) | 10 | 40 | 10 | 30 | 10 | – | – | – | – | – | – | – | – | – | – | –
10 | CCN(CC)C(=O)n1cnc(S(=O)(=O)C(C(=O)OC)C2CCCC2)n1 (stereo not given) | 100 | 100 | 100 | 90 | 10 | 0.69 | – | 1.27 | – | – | – | – | 90 | 90 | 80 | 90
11 | CCC(C)C(C(=O)OC)S(=O)(=O)c1ncn(C(=O)N(CC)CC)n1 (stereo not given) | 60 | 100 | 90 | 80 | 10 | 0.66 | – | 0.95 | – | – | – | – | 100 | 90 | 40 | 100
12 | CCN(CC)C(=O)n1cnc(S(=O)(=O)CC(=O)OC)n1 | 10 | 10 | 10 | 10 | 10 | 0.36 | – | 0.18 | – | – | – | – | 30 | 40 | 10 | 50
13 | CCN(CC)C(=O)n1cnc(S(=O)(=O)C(CC2CC2)C(=O)OC)n1 (stereo not given) | 100 | 100 | 60 | 90 | 10 | 0.6 | – | 0.95 | – | – | – | – | 100 | 90 | 60 | 90
14 | CCCC(C(=O)OC)S(=O)(=O)c1ncn(C(=O)N(CC)CC)n1 (stereo not given) | 60 | 100 | 60 | 60 | 10 | 0.58 | – | 1.14 | – | – | – | – | 100 | 100 | 50 | 100
15 | CC(C)CC(C(=O)OC(C)C)S(=O)(=O)c1ncn(C(=O)N(C)c2ccccc2)n1 (stereo not given) | 10 | 20 | 10 | 40 | – | – | – | – | – | – | – | – | – | – | – | –
16 | CCN(CC)C(=O)n1cnc(S(=O)(=O)C(C(=O)OC)C(C)C)n1 (stereo not given) | 100 | 100 | 100 | 90 | 40 | 0.56 | – | 1.24 | – | – | – | – | 90 | 80 | 30 | 90
17 | CCC(C)CC(C(=O)OC)S(=O)(=O)c1ncn(C(=O)N(CC)CC)n1 (stereo not given) | 40 | 90 | 80 | 80 | 10 | 0.79 | – | 0.99 | – | – | – | – | 100 | 90 | 20 | 90
18 | CCC(C(=O)OC)S(=O)(=O)c1ncn(C(=O)N(CC)CC)n1 (stereo not given) | 10 | 60 | 10 | 10 | 10 | 0.49 | – | 0.74 | – | – | – | – | 40 | 60 | 30 | 50
19 | CC(C)CC(C(=O)OC(C)C)S(=O)(=O)c1ncn(C(=O)N(C)C)n1 (stereo not given) | 10 | 60 | 10 | 40 | – | – | – | – | – | – | – | – | – | – | – | –
20 | CCC(CC)C(C(=O)OC)S(=O)(=O)c1ncn(C(=O)N(CC)CC)n1 (stereo not given) | 100 | 100 | 80 | 90 | 10 | 0.76 | – | 1.4 | – | – | – | – | 90 | 100 | 30 | 90
21 | C=CC(C)C(C(=O)OC)S(=O)(=O)c1ncn(C(=O)N(CC)CC)n1 (stereo not given) | 10 | 60 | 10 | 10 | 10 | 0.63 | – | 0.65 | – | – | – | – | 90 | 90 | 70 | 90
22 | CCN(CC)C(=O)n1cnc(S(=O)(=O)C(C)C(=O)OC)n1 (stereo not given) | 10 | 10 | 10 | 10 | 10 | 0.41 | – | -0.1 | – | – | – | – | 60 | 60 | 20 | 80
23 | CC(C)CC(C(=O)OC(C)C)S(=O)(=O)c1ncn(C(=O)N(C)C2CCCCC2)n1 (stereo not given) | 10 | 30 | 10 | 50 | – | – | – | – | – | – | – | – | – | – | – | –
24 | CCN(CC)C(=O)n1cnc(S(=O)(=O)C(CC2CCCCC2)C(=O)OC)n1 (stereo not given) | 10 | 100 | 10 | 50 | 10 | 0.94 | – | 1.2 | – | – | – | – | 40 | 40 | 20 | 10
25 | CC(C)CC(C(=O)OC(C)C)S(=O)(=O)c1ncn(C(=O)N2CCOCC2)n1 (stereo not given) | 10 | 10 | 10 | 10 | – | – | – | – | – | – | – | – | – | – | – | –
26 | CCN(CC)C(=O)n1cnc(S(=O)(=O)C(CC(=O)OC)C(=O)OC)n1 (stereo not given) | 10 | 10 | 10 | 10 | 10 | 0.45 | – | -0.04 | – | – | – | – | 30 | 50 | 10 | 60
27 | CCN(CC)C(=O)n1cnc(S(=O)(=O)C(Cc2ccccc2)C(=O)OC)n1 (stereo not given) | 10 | 50 | 10 | 10 | 10 | 0.69 | – | 0.6 | – | – | – | – | 30 | 10 | 10 | 10
